Each molecule was assayed against T1, STAT3 (Homo sapiens, UniProt P40763) (assay: STAT3 HiBiT degradation assay in transfected A549 cells). Settings: 24 h compound incubation, Nano-Glo HiBiT lytic detection, read-out: Cell: STAT3 HiBit A549 degradation 24 h GMean External Abs-DC50.
T1 construct: expressed in transfected cells; host or cells: A549
T1 sequence (P40763 whole entry): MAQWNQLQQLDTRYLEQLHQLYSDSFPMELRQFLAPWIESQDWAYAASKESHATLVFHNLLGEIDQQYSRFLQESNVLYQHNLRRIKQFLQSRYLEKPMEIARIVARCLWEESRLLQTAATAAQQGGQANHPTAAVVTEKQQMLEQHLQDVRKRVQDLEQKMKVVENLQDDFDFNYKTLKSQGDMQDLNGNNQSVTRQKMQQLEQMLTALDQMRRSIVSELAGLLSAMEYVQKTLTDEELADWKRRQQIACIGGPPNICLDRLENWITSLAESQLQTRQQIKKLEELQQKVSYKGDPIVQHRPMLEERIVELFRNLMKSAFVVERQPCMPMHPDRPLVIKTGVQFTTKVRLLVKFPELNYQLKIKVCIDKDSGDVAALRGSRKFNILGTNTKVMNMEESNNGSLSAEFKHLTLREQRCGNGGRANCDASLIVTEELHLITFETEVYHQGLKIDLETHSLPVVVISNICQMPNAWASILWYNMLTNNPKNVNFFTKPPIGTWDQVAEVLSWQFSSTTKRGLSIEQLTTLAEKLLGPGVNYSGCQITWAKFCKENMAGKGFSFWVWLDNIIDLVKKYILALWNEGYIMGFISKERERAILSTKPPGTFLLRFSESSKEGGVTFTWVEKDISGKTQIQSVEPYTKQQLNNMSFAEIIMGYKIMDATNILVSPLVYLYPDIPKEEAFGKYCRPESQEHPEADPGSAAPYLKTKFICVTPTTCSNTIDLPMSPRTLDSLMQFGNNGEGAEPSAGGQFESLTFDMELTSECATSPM
Assay type: cell-based
Protocol: Compound preparation and Cell seeding: The transfected A549 cells were harvested from dish into cell culture medium and cell numbers counted. Cells were diluted with culture medium to the desired density and 30 μL of cell suspension (about 2000 cells/well) were added into each well of a 384-well cell culture plate as designated and transferred into 37° C. 5% CO2 incubator for 24 h. Compounds were dissolved to 10 mM stock solution and 12 μL of the stock solution was transferred to a 384 LDV-plate. 3 fold, 10-point dilution was performed by transferring 4 μL compound into 8 μL DMSO using a TECAN (EVO200) liquid handler. 30 μL of diluted compound from compound source plate was transferred into the cell plate as designated by using Echo550 and transferred into 37° C. 5% CO2 incubator for 24 h.
Detection: Plates were removed from incubators and equilibrated at room temperature for 15 minutes. Nano-Glo Hibit Lytic Detection reagent (Promega Cat #N3040) was thawed and equilibrated to room temperature before the experiment. 30 μL of Nano-Glo Hibit Lytic Detection reagent was added into each well to be detected. The plates were held at room temperature for 10 min followed by reading on EnSpire.
Data analysis: The remaining activity was calculated following the formula: Remaining Activity (%)=100%×(Lumsample−LumNC)/(LumPC−LumNC). Calculate the IC50 by fitting the curve using Xlfit (v5.3.1.3), equation 201: fit=(A+((B−A)/(1+((x/C)^D)))); A: Botton; B: Top; C: IC50; and D: Slope.
The letter codes for STAT3 DC50 include: A (<0.05 μM), B (0.05-0.2 μM), C (0.2-1.0 μM), and D (>1.0 μM).
COC(=O)N1CC[C@H]2CC[C@@H](C(=O)N[C@@H](CCC(N)=O)C(=O)N[C@@H](Cc3ccc(F)c(F)c3)C(=O)N3CCC(CCCc4cccc5c4n(C)c(=O)n5C4CCC(=O)NC4=O)CC3)N2C(=O)[C@@H](NC(=O)c2cc3cc(C(F)(F)P(=O)(O)O)ccc3s2)C1 (stereo partly shown) [Compound I-3] showed a DC50 of less than 50 nM.
For Cn1c(=O)n(C2CCC(=O)NC2=O)c2ccc(CCCC3CCN(C(=O)[C@H](Cc4ccc(F)c(F)c4)NC(=O)[C@H](CCC(N)=O)NC(=O)[C@@H]4CC[C@@H]5CCCC[C@H](NC(=O)c6cc7cc(C(F)(F)P(=O)(O)O)ccc7s6)C(=O)N54)CC3)cc21 (stereo partly shown) [Compound I-11], the DC50 was 50 to 200 nM.
Work on COC(=O)N1CC[C@H]2CC[C@@H](C(=O)N[C@@H](CCC(N)=O)C(=O)N[C@H](C(=O)N3CCC(CCCCc4cccc5c4n(C)c(=O)n5C4CCC(=O)NC4=O)CC3)C3CCCCC3)N2C(=O)[C@@H](NC(=O)c2cc3cc(C(F)(F)P(=O)(O)O)ccc3s2)C1 (stereo partly shown) [Compound I-17] yielded a DC50 of 200 to 1000 nM.
Work on COC(=O)N1CC[C@H]2CC[C@@H](C(=O)N[C@@H](CCC(N)=O)C(=O)N[C@H](C(=O)N3CCC(CCC#Cc4cccc5c4n(C)c(=O)n5C4CCC(=O)NC4=O)CC3)C3CCCCC3)N2C(=O)[C@@H](NC(=O)c2cc3cc(C(F)(F)P(=O)(O)O)ccc3s2)C1 (stereo partly shown) [Compound I-16] yielded a DC50 of 200 to 1000 nM.
With CC(=O)N1CC[C@H]2CC[C@@H](C(=O)N[C@@H](CCC(N)=O)C(=O)N[C@@H](Cc3ccc(F)c(F)c3)C(=O)N3CCC(CCC#Cc4ccc5c(c4)n(C)c(=O)n5C4CCC(=O)NC4=O)CC3)N2C(=O)[C@@H](NC(=O)c2cc3cc(C(=O)P(=O)(O)O)ccc3[nH]2)C1 (stereo partly shown) [Compound I-7] the DC50 was 200 to 1000 nM.
With CC(=O)N1CC[C@H]2CC[C@@H](C(=O)N[C@@H](CCC(N)=O)C(=O)N[C@H](C(=O)N3CCC(CCCCc4cccc5c4n(C)c(=O)n5C4CCC(=O)NC4=O)CC3)C3CCCCC3)N2C(=O)[C@@H](NC(=O)c2cc3cc(C(=O)P(=O)(O)O)ccc3s2)C1 (stereo partly shown) [Compound I-32] the DC50 was 200 to 1000 nM.
With COC(=O)N1CC[C@H]2CC[C@@H](C(=O)N[C@@H](CCC(N)=O)C(=O)N[C@@H](Cc3ccc(F)c(F)c3)C(=O)N3CCC(CCC#Cc4ccc5c(c4)n(C)c(=O)n5C4CCC(=O)NC4=O)CC3)N2C(=O)[C@@H](NC(=O)c2cc3cc(C(F)(F)P(=O)(O)O)ccc3s2)C1 (stereo partly shown) [Compound I-1] the DC50 was less than 50 nM.
CC(=O)N1CC[C@H]2CC[C@@H](C(=O)N[C@@H](CCC(N)=O)C(=O)N[C@H](C(=O)N3CCC(CCC#Cc4cccc5c4n(C)c(=O)n5C4CCC(=O)NC4=O)CC3)C3CCCCC3)N2C(=O)[C@@H](NC(=O)c2cc3cc(C(=O)P(=O)(O)O)ccc3s2)C1 (stereo partly shown) [Compound I-31] was tested, and the DC50 was 50 to 200 nM.
Molecule CC(=O)N1CC[C@H]2CC[C@@H](C(=O)N[C@@H](CCC(N)=O)C(=O)N[C@H](C(=O)N3CCC(CCCc4ccc5c(c4)n(C)c(=O)n5C4CCC(=O)NC4=O)CC3)C3CCCCC3)N2C(=O)[C@@H](NC(=O)c2cc3cc(C(=O)P(=O)(O)O)ccc3s2)C1 (stereo partly shown) [Compound I-30] has a DC50 greater than 1000 nM.
For COC(=O)N1CC[C@H]2CC[C@@H](C(=O)N[C@@H](CCC(N)=O)C(=O)N[C@H](C(=O)N3CCC(CCCCc4cccc5c4n(C)c(=O)n5C4CCC(=O)NC4=O)CC3)C3CCCCC3)N2C(=O)[C@@H](NC(=O)c2cc3cc(C(=O)P(=O)(O)O)ccc3[nH]2)C1 (stereo partly shown) [Compound I-20], the DC50 was 200 to 1000 nM.
With COC(=O)N1CC[C@H]2CC[C@@H](C(=O)N[C@@H](CCC(N)=O)C(=O)N[C@H](C(=O)N3CCC(CCCc4ccc5c(c4)n(C)c(=O)n5C4CCC(=O)NC4=O)CC3)C3CCCCC3)N2C(=O)[C@@H](NC(=O)c2cc3cc(C(F)(F)P(=O)(O)O)ccc3s2)C1 (stereo partly shown) [Compound I-15] the DC50 was 200 to 1000 nM.
Work on COC(=O)N1CC[C@H]2CC[C@@H](C(=O)N[C@@H](CCC(N)=O)C(=O)N[C@H](C(=O)N3CCC(CCCc4ccc5c(c4)n(C)c(=O)n5C4CCC(=O)NC4=O)CC3)C3CCCCC3)N2C(=O)[C@@H](NC(=O)c2cc3cc(C(=O)P(=O)(O)O)ccc3[nH]2)C1 (stereo partly shown) [Compound I-18] yielded a DC50 of 200 to 1000 nM.
For COC(=O)N1CC[C@H]2CC[C@@H](C(=O)N[C@@H](CCC(N)=O)C(=O)N[C@@H](Cc3ccc(F)c(F)c3)C(=O)N3CCC(CCC#Cc4ccc5c(c4)n(C)c(=O)n5C4CCC(=O)NC4=O)CC3)N2C(=O)[C@@H](NC(=O)c2cc3cc(C(=O)P(=O)(O)O)ccc3[nH]2)C1 (stereo partly shown) [Compound I-4], the DC50 was 200 to 1000 nM.
COC(=O)N1CC[C@H]2CC[C@@H](C(=O)N[C@@H](CCC(N)=O)C(=O)N[C@H](C(=O)N3CCC(CCC#Cc4cccc5c4n(C)c(=O)n5C4CCC(=O)NC4=O)CC3)C3CCCCC3)N2C(=O)[C@@H](NC(=O)c2cc3cc(C(=O)P(=O)(O)O)ccc3[nH]2)C1 (stereo partly shown) [Compound I-19] gave a DC50 of 200 to 1000 nM.
COC(=O)N1CC[C@H]2CC[C@@H](C(=O)N[C@@H](CCC(N)=O)C(=O)N[C@@H](Cc3ccc(F)c(F)c3)C(=O)N3CCC(CCCc4ccc5c(c4)n(C)c(=O)n5C4CCC(=O)NC4=O)CC3)N2C(=O)[C@@H](NC(=O)c2cc3cc(C(=O)P(=O)(O)O)ccc3[nH]2)C1 (stereo partly drawn) [Compound I-5, 2-[[(5S,8S,10aR)-8-[[(1S)-3-carbamoyl-1-[[(2S)-3-(3,4-difluorophenyl)-1-(4-[3-[1-(2,6-dioxopiperidin-3-yl)-3-methyl-2-oxo-1,3-benzodiazol-5-yl]propyl]piperidin-1-yl)-1-oxopropan-2-yl]carbamoyl]propyl]carbamoyl]-3-(methoxycarbonyl)-6-oxo-octahydropyrrolo[1,2-a][1,5]diazocin-5-yl]carbamoyl]-1H-indole-5-carbonylphosphonic acid] was tested, and the DC50 was 50 to 200 nM.
In the case of CC(=O)N1CC[C@H]2CC[C@@H](C(=O)N[C@@H](CCC(N)=O)C(=O)N[C@H](C(=O)N3CCC(CCC#Cc4cccc5c4n(C)c(=O)n5C4CCC(=O)NC4=O)CC3)C3CCCCC3)N2C(=O)[C@@H](NC(=O)c2cc3cc(C(=O)P(=O)(O)O)ccc3[nH]2)C1 (stereo partly shown) [Compound I-29], the DC50 is reported as greater than 1000 nM.
Molecule CC(=O)N1CC[C@H]2CC[C@@H](C(=O)N[C@@H](CCC(N)=O)C(=O)N[C@@H](Cc3ccc(F)c(F)c3)C(=O)N3CCC(CCCc4cccc5c4n(C)c(=O)n5C4CCC(=O)NC4=O)CC3)N2C(=O)[C@@H](NC(=O)c2cc3cc(C(=O)P(=O)(O)O)ccc3[nH]2)C1 (stereo partly shown) [Compound I-9] has a DC50 of 200 to 1000 nM.
Cn1c(=O)n(C2CCC(=O)NC2=O)c2cccc(CCCC3CCN(C(=O)[C@H](Cc4ccc(F)c(F)c4)NC(=O)[C@H](CCC(N)=O)NC(=O)N4Cc5cccc6c5C4C(=O)[C@@H](NC(=O)c4cc5cc(C(=O)P(=O)(O)O)ccc5[nH]4)CC6)CC3)c21 (stereo partly shown) [Compound I-13] showed a DC50 of 200 to 1000 nM.
Molecule CC(=O)N1CC[C@H]2CC[C@@H](C(=O)N[C@@H](CCC(N)=O)C(=O)N[C@@H](Cc3ccc(F)c(F)c3)C(=O)N3CCC(CCCc4ccc5c(c4)n(C)c(=O)n5C4CCC(=O)NC4=O)CC3)N2C(=O)[C@@H](NC(=O)c2cc3cc(C(=O)P(=O)(O)O)ccc3[nH]2)C1 (stereo partly shown) [Compound I-8] has a DC50 greater than 1000 nM.
Work on Cn1c(=O)n(C2CCC(=O)NC2=O)c2cccc(CCCC3CCN(C(=O)[C@H](Cc4ccc(F)c(F)c4)NC(=O)[C@H](CCC(N)=O)NC(=O)N4Cc5cccc6c5C4C(=O)[C@@H](NC(=O)c4cc5cc(C(F)(F)P(=O)(O)O)ccc5s4)CC6)CC3)c21 (stereo partly shown) [Compound I-14] yielded a DC50 greater than 1000 nM.
COC(=O)N1CC[C@H]2CC[C@@H](C(=O)N[C@@H](CCC(N)=O)C(=O)N[C@@H](Cc3ccc(F)c(F)c3)C(=O)N3CCC(CCCc4cccc5c4n(C)c(=O)n5C4CCC(=O)NC4=O)CC3)N2C(=O)[C@@H](NC(=O)c2cc3cc(C(=O)P(=O)(O)O)ccc3[nH]2)C1 (stereo partly shown) [Compound I-6] was tested, and the DC50 was 200 to 1000 nM.
Molecule COC(=O)N1CC[C@H]2CC[C@@H](C(=O)N[C@@H](CCC(N)=O)C(=O)N[C@@H](Cc3ccc(F)c(F)c3)C(=O)N3CCC(CCCc4ccc5c(c4)n(C)c(=O)n5C4CCC(=O)NC4=O)CC3)N2C(=O)[C@@H](NC(=O)c2cc3cc(C(F)(F)P(=O)(O)O)ccc3s2)C1 (stereo partly drawn) [Compound I-2, (2-{[(5S,8S,10aR)-8-{[(1S)-3-carbamoyl-1-{[(2S)-3-(3,4-difluorophenyl)-1-(4-{3-[1-(2,6-dioxopiperidin-3-yl)-3-methyl-2-oxo-1,3-benzodiazol-5-yl]propyl}piperidin-1-yl)-1-oxopropan-2-yl]carbamoyl}propyl]carbamoyl}-3-(methoxycarbonyl)-6-oxo-octahydropyrrolo[1,2-a][1,5]diazocin-5-yl]carbamoyl}-1-benzothiophen-5-yl)difluoromethylphosphonic acid] has a DC50 of less than 50 nM.
CC(=O)N1CC[C@H]2CC[C@@H](C(=O)N[C@@H](CCC(N)=O)C(=O)N[C@@H](Cc3ccc(F)c(F)c3)C(=O)N3CCC(CCC#Cc4ccc5c(c4)n(C)c(=O)n5C4CCC(=O)NC4=O)CC3)N2C(=O)[C@@H](NC(=O)c2cc3cc(C(F)(F)P(=O)(O)O)ccc3s2)C1 (stereo partly shown) [Compound I-10] showed a DC50 of 50 to 200 nM.
With CC(=O)N1CC[C@H]2CC[C@@H](C(=O)N[C@@H](CCC(N)=O)C(=O)N[C@H](C(=O)N3CCC(CCCCc4cccc5c4n(C)c(=O)n5C4CCC(=O)NC4=O)CC3)C3CCCCC3)N2C(=O)[C@@H](NC(=O)c2cc3cc(C(=O)P(=O)(O)O)ccc3[nH]2)C1 (stereo partly shown) [Compound I-27] the DC50 was greater than 1000 nM.
Work on Cn1c(=O)n(C2CCC(=O)NC2=O)c2ccc(CCCC3CCN(C(=O)[C@H](Cc4ccc(F)c(F)c4)NC(=O)[C@H](CCC(N)=O)NC(=O)[C@@H]4CC[C@@H]5CCCC[C@H](NC(=O)c6cc7cc(C(=O)P(=O)(O)O)ccc7[nH]6)C(=O)N54)CC3)cc21 (stereo partly shown) [Compound I-12] yielded a DC50 of 200 to 1000 nM.
